{
  "source": "the supplement of paper PMC10307832",
  "assay_in_all_cases": "relative viability (nuclei count vs DMSO), 5 days (fraction); higher = more cells survive",
  "key": {"[1]": {"compound": "C1=CC2=C(C=C(C(=C2N=C1)O)N=NC3=CC4=C(C=C3)C=C(C=C4)S(=O)(=O)O)S(=O)(=O)O + Nc1ncn([C@H]2C[C@H](O)[C@@H](CO)O2)c(=O)n1 [Decitabine] (partner 2 µM)", "in_short": "(§1)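 Each reported value is a median over duplicate plates. It expresses relative viability: treated-well nuclei count divided by vehicle-well nuclei count. Lung cancer cell lines in 1536-well plates were dosed by pin tool a day after seeding, alone with one drug or with a fixed anchor-drug dose plus five library-drug doses (not always all listed) in √10 steps, and nuclei were counted after 5 days.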"}, "[2]": {"compound": "C1=CC2=C(C=C(C(=C2N=C1)O)N=NC3=CC4=C(C=C3)C=C(C=C4)S(=O)(=O)O)S(=O)(=O)O + Cc1nc(Nc2ncc(C(=O)Nc3c(C)cccc3Cl)s2)cc(N2CCN(CCO)CC2)n1 [Dasatinib] (partner 0.075 µM)", "in_short": "as §1"}, "AT-7519 + Alpelisib": {"compound": "O=C(NC1CCNCC1)c1n[nH]cc1NC(=O)c1c(Cl)cccc1Cl [AT-7519] + Cc1nc(NC(=O)N2CCC[C@H]2C(N)=O)sc1-c1ccnc(C(C)(C)C(F)(F)F)c1 [Alpelisib] (partner 2 µM)", "in_short": "as §1"}, "[3]": {"compound": "C1=CC2=C(C=C(C(=C2N=C1)O)N=NC3=CC4=C(C=C3)C=C(C=C4)S(=O)(=O)O)S(=O)(=O)O + CC(=O)c1c(C)c2cnc(Nc3ccc(N4CCNCC4)cn3)nc2n(C2CCCC2)c1=O [Palbociclib] (partner 0.5 µM)", "in_short": "as §1"}},
  "data": [
    {"cell line": "UMC-11", "values": [
      {"measurement": "relative viability", "setting": "[1]; first compound 0.08 µM", "value": 0.506},
      {"measurement": "relative viability", "setting": "[1]; first compound 0.253 µM", "value": 0.644},
      {"measurement": "relative viability", "setting": "[1]; first compound 0.8 µM", "value": 0.734},
      {"measurement": "relative viability", "setting": "[1]; first compound 2.53 µM", "value": 0.679},
      {"measurement": "relative viability", "setting": "[1]; first compound 8 µM", "value": 0.638},
      {"measurement": "relative viability", "setting": "[2]; first compound 0.08 µM", "value": 0.493},
      {"measurement": "relative viability", "setting": "[2]; first compound 0.253 µM", "value": 0.454},
      {"measurement": "relative viability", "setting": "[2]; first compound 0.8 µM", "value": 0.456},
      {"measurement": "relative viability", "setting": "[2]; first compound 2.53 µM", "value": 0.439},
      {"measurement": "relative viability", "setting": "[2]; first compound 8 µM", "value": 0.441},
      {"measurement": "relative viability", "setting": "AT-7519 + Alpelisib; first compound 0.01 µM", "value": 0.841},
      {"measurement": "relative viability", "setting": "AT-7519 + Alpelisib; first compound 0.03162 µM", "value": 0.94},
      {"measurement": "relative viability", "setting": "AT-7519 + Alpelisib; first compound 0.3162 µM", "value": 0.587},
      {"measurement": "relative viability", "setting": "AT-7519 + Alpelisib; first compound 1 µM", "value": 0.35},
      {"measurement": "relative viability", "setting": "[3]; first compound 0.08 µM", "value": 0.325},
      {"measurement": "relative viability", "setting": "[3]; first compound 0.253 µM", "value": 0.329},
      {"measurement": "relative viability", "setting": "[3]; first compound 0.8 µM", "value": 0.326},
      {"measurement": "relative viability", "setting": "[3]; first compound 2.53 µM", "value": 0.339},
      {"measurement": "relative viability", "setting": "[3]; first compound 8 µM", "value": 0.324}
    ]}
  ]
}
